Read-outs that look alike come from different tables or passages of the source.
What was measured:
[1] = biological target: T1, human MET kinase Y1230H (Homo sapiens, UniProt P08581, Y1230H); test: c-Met Enzyme Assay, Y1230H mutant; format: binding; conditions: averaged IC50; Y1230H 5 nM; 60-minute incubation at 22° C.; read-out: Y1230 H IC50
T1 construct: GST-tagged recombinant human MET kinase domain; purchased Signal Chem
Outline: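 LanthaScreen Eu TR-FRET binding: GST-tagged recombinant MET kinase domain incubated with compound, 50 nM Alexa-Fluor Tracer 236 and 2 nM Eu-anti-GST in 25 mM HEPES pH 7.4, 10 mM MgCl2, 1 mM DTT, 2% DMSO, 60 min at 22 °C. Ratiometric emission gave percent of control; IC50 from 4-parameter fit at 50 POC.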

[2] = biological target: T2, MDR1 (P-gp) (Homo sapiens, UniProt P08183); test: MDR1 LLC-PK1 permeability assay; format: in vitro ADME; conditions: pig, MDR1 transfected LLC-PK1 cells; for Papp at 2 h, 1 μM: permeability coefficient (Papp)
T2 construct: expressed in transfected cells; host or cells: LLC-PK1
T2 sequence (P08183 whole entry): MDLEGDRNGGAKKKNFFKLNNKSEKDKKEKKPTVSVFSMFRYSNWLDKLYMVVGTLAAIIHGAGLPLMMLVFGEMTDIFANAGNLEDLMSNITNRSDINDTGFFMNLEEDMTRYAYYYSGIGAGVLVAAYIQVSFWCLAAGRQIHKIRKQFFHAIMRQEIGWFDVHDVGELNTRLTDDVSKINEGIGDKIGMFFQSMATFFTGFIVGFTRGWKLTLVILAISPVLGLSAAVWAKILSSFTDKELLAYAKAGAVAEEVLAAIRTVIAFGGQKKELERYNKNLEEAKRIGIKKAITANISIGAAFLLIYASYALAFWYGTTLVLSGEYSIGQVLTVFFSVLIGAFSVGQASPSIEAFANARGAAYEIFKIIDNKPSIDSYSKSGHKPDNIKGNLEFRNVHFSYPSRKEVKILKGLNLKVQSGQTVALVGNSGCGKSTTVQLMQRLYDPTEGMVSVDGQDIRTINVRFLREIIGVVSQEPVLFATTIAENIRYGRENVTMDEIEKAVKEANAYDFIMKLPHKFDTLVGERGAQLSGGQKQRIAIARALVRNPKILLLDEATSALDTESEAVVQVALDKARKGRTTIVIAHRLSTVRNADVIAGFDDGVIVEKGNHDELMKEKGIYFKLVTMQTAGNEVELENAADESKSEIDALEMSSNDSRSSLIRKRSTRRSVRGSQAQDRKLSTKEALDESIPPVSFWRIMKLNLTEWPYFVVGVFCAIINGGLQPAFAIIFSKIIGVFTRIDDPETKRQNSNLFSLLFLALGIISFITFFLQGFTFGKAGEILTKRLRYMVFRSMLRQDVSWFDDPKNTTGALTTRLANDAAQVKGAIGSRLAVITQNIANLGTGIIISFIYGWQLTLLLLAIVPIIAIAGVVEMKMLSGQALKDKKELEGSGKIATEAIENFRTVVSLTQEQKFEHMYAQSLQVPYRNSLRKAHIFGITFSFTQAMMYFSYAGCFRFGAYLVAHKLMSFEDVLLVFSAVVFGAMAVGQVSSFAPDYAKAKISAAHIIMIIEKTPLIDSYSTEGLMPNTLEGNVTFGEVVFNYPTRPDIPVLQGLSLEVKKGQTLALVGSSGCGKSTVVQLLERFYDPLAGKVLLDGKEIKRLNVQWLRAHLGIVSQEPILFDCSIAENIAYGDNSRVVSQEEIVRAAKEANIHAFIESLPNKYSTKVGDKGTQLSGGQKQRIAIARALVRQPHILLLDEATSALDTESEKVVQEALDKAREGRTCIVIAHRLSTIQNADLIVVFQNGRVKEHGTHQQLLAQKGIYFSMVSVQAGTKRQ
Outline: (§1)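 MDR1-transfected LLC-PK1 monolayers dosed at 1 μM test article (1% organic) in A→B and B→A directions, in triplicate, for 2 h at 37 °C; lucifer yellow monitored monolayer integrity. Compound measured by LC-MS/MS against labetalol internal standard; Papp averaged per replicate, efflux ratio = Papp(B−A)/Papp(A−B).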

[3] = biological target: T3, MDR1 transfected LLC-PK1 cells (Homo sapiens, UniProt P08183); test: MDR1 LLC-PK1 permeability assay; format: in vitro ADME; conditions: efflux ratio = Papp(B-A)/Papp(A-B)
T3 construct: expressed in transfected cells; host or cells: LLC-PK1
T3 sequence (P08183 whole entry): as above
Outline: as §1

[4] = LLC-PK1, Papp(B−A)/Papp(A−B), test article 1 μM, 2 hours, 37° C., read-out: Efflux ratio
[5] = LLC-PK1, efflux ratio = Papp(B-A)/Papp(A-B), read-out: MDR1 Pe Ratio

T1 sequence (P08581 1078-1345 Y1230H): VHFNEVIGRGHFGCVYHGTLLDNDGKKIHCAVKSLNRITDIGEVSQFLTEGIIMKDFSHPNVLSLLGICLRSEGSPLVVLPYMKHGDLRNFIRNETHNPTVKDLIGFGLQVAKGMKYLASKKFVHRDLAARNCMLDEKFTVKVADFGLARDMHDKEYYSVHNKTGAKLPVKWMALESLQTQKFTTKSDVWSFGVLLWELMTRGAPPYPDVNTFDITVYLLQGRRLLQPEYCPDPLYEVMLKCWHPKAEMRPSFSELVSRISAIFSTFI

SMILES | IC50 [1] [nM] | efflux ratio at 2 h, 1 μM [2, 4] | Papp at 2 h, 1 μM [2] [×10⁻⁶ cm/s] | MDR1 Pe Ratio [3] | efflux ratio at 2 h, 1 μM [2, 5]
COc1cc2nccc(Oc3ccc(NC(=O)c4cn(CCC(C)C)cc(-c5ccc(F)c(F)c5)c4=O)nc3)c2cc1OC [Example 35, 5-(3,4-difluorophenyl)-N-(5-((6,7-dimethoxyquinolin-4yl)oxy)pyridin-2-yl)-1-isopentyl-4-oxo-1,4-dihydropyridine-3-carboxamide] | 18.3 | 3.5 | < 1 | 3.5 | 
COc1cc2nccc(Oc3ccc(NC(=O)c4cn(C(C)C)cc(-c5ccc(Cl)cc5)c4=O)nc3)c2cc1OC [Example 5, 5-(4-chlorophenyl)-N-(5-((6,7-dimethoxyquinolin-4-yl)oxy)pyridin-2-yl)-1-isopropyl-4-oxo-1,4-dihydropyridine-3-carboxamide] | 16.6 | 3.5 | 5 |  | 2.6
COc1cc2nccc(Oc3ccc(NC(=O)c4cn(CC(C)(C)O)cc(-c5ccc(F)cc5)c4=O)nc3)c2cc1OC [Example 9, N-(5-((6,7-dimethoxyquinolin-4-yl)oxy)pyridin-2-yl)-5-(4-fluorophenyl)-1-(2-hydroxy-2-methylpropyl)-4-oxo-1,4-dihydropyridine-3-carboxamide] | 13.1 |  | 14 |  | 26
COc1cc2nccc(Oc3ccc(NC(=O)c4cn(C(C)C)cc(-c5ccc(F)c(F)c5)c4=O)nc3)c2cc1OC [Example 6] | 24.2 |  | 7 |  | 4.9
COc1cc2nccc(Oc3ccc(NC(=O)c4cn(CC(=O)N(C)C)cc(-c5ccc(F)cc5)c4=O)nc3)c2cc1OC [Example 23, N-(5-((6,7-dimethoxyquinolin-4yl)oxy)pyridin-2-yl)-1-(2-(dimethylamino)-2-oxoethyl)-5-(4-fluorophenyl)-4-oxo-1,4-dihydropyridine-3-carboxamide] | 7.8 |  | 6 |  | 105
